“And” between values parts separate entries of the source, which are not always exact repeats. Identical values can stand only once.
How the values were obtained:
CYP1A2-Cytb5R = target: T1, CYP1A2-Cytb5R (Homo sapiens, UniProt P05177); assay: Turnover by non-canonical recombinant CYP1A2-Cytb5R; type: in vitro ADME; settings: noncanonical CYP1A2-Cytb5R
T1 construct: purchased BioIVT (custom synthesis) CE00001 (CYP1A2), batch CPD034-1A2-30; host or cells: bactosomes
T1 sequence (P05177 1-516): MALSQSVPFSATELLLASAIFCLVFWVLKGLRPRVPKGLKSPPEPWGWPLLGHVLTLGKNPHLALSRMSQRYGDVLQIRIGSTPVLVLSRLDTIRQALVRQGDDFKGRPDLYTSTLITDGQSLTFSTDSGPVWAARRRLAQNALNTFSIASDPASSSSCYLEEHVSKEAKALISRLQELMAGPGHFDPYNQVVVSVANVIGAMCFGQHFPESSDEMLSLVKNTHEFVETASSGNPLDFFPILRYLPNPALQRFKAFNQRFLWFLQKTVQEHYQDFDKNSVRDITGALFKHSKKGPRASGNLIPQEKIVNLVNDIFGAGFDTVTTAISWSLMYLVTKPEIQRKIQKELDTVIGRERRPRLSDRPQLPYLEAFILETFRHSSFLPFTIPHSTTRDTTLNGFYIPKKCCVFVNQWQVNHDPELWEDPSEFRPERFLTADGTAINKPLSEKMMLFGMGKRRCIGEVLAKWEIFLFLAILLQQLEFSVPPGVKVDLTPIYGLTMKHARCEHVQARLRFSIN
Source text: As commercial recombinant human CYPs co-express the individual CYP and reductase with an option to include cytochrome b5. A custom synthesis co-expressing CYP3A4 or CYP1A2 and Cytb5R plus cytochrome b5 was, therefore, ordered from BioIVT and the bactosomes were compared with canonical CYP-POR enzymes plus cytochrome b5.

[1] = cited from earlier work
in vitro = settings: human, hepatocytes
[2] = CLint in NADH-supplemented human liver microsomes; settings: human, pH 7.4
Experimental: (§1) Calculation and scaling of CLint,u was done using the equation below and 45 mg of microsomal protein per gram of liver. HLMCLint,u=ln2/x1/t1/2(min)xmLincubation/mgmicrosomalproteinx45mgmicrosomalprotein/gliverx21gliver/kg/Fuinc

[3] = CLint in NADPH-supplemented human liver microsomes; settings: human
Experimental: as §1

recombinant human CYP1A2 = target: T2, recombinant human CYP1A2 (Homo sapiens, UniProt P05177); assay: Recombinant CYP panel, savolitinib CLint; type: in vitro ADME
T2 sequence (P05177 1-516): T1 sequence (P05177 1-516)
Experimental: (§2) […]
(§3) The clearance of savolitinib was
(§4) The average intrinsic clearance was
(§5) concentrations (final 0.1 µM).

recombinant human CYP3A4 = recombinant human CYP3A4 (Homo sapiens, UniProt P08684); assay: Recombinant CYP panel, savolitinib CLint; type: in vitro ADME
Experimental: as §2, §3, §4, §5

recombinant human CYP2A6 = target: T3, recombinant human CYP2A6 (Homo sapiens, UniProt P11509); assay: Recombinant CYP panel, savolitinib CLint; type: in vitro ADME
T3 sequence (P11509 1-494): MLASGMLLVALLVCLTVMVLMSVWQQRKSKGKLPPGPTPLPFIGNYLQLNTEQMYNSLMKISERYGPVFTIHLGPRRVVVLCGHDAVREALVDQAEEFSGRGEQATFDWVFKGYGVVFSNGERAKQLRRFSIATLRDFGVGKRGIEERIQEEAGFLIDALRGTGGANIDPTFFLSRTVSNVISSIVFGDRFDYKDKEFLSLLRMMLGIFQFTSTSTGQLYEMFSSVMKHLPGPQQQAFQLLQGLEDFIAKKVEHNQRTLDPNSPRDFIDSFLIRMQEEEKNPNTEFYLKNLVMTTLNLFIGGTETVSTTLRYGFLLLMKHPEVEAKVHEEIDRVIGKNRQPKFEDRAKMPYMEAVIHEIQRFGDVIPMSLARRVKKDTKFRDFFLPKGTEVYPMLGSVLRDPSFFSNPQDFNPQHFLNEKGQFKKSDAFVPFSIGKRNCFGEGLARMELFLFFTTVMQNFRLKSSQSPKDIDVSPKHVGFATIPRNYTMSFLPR
Experimental: as §2, §3, §4, §5

[4] = target: recombinant human CYP2C19 (Homo sapiens, UniProt P33261); assay: Recombinant CYP panel, savolitinib CLint; type: in vitro ADME; settings: CYP2C19, inter-system extrapolation factors
Experimental: as §2, §3, §4, §5

recombinant human CYP3A5 = recombinant human CYP3A5 (Homo sapiens, UniProt P20815); assay: Recombinant CYP panel, savolitinib CLint; type: in vitro ADME
Experimental: as §2, §3, §4, §5

recombinant human CYP2D6 = recombinant human CYP2D6 (Homo sapiens, UniProt P10635); assay: Recombinant CYP panel, savolitinib CLint; type: in vitro ADME
Experimental: as §2, §3, §4, §5

[5] = Intrinsic permeability in Caco-2 cells with efflux inhibited; settings: human, Caco-2
[6] = Free fraction in HLM incubation, equilibrium dialysis; type: in vitro ADME, human
[7] = Free savolitinib in incubation with 150 mg/mL bovine serum albumin; type: in vitro ADME; settings: BSA final 150 mg/mL
rat hepatocytes = assay: Free fraction in rat hepatocytes as surrogate for HH, equilibrium dialysis; type: in vitro ADME; settings: fraction unbound, measured or estimated by in silico models of Fuinc
[8] = as above; type: in vitro ADME; settings: rat hepatocytes (surrogate for human hepatocytes); printed as HH; rat hepatocytes used as surrogate
recombinant CYP3A4-POR = target: T4, recombinant CYP3A4-POR (Homo sapiens, UniProt P08684); assay: Savolitinib incubation with recombinant CYP3A4-POR Supersomes; type: in vitro ADME; settings: CYP3A4-POR 100 pmol/mL, 1 µM, 1 h (Fig. 2b)
T4 construct: purchased 456202
Experimental: For detailed comparisons between recombinant CYP1A2 and CYP3A4 (Fig. 2B, C), Supersomes were used (CYP1A2, catalogue number 456203, CYP3A4, catalogue number 456202). […] The concentration of savolitinib metabolites M2 and M4 formed were determined from standard curves obtained by spiking the appropriate concentrations of M2 and M4 into recombinant enzymes (in the absence of NADPH) and processing in the same way as the samples.

[9] = LogD pH 7.4, octanol/phosphate buffer; settings: octanol/phosphate buffer, pH 7.4
[10] = healthy volunteers; cited from earlier work

T4 sequence (P08684 whole entry): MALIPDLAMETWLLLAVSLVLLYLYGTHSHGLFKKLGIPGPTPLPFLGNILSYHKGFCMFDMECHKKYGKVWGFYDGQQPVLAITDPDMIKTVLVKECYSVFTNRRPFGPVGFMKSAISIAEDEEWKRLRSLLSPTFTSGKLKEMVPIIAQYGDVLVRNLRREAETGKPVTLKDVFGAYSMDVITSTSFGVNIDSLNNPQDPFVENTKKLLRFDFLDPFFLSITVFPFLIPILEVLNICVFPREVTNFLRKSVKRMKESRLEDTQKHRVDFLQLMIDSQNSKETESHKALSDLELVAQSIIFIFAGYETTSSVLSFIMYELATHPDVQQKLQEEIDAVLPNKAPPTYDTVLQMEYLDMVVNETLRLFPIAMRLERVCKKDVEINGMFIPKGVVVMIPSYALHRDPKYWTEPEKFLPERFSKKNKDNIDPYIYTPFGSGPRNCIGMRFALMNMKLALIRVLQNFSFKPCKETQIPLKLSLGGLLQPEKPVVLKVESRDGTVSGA
Chain of recombinant human CYP3A5 (P20815 whole entry): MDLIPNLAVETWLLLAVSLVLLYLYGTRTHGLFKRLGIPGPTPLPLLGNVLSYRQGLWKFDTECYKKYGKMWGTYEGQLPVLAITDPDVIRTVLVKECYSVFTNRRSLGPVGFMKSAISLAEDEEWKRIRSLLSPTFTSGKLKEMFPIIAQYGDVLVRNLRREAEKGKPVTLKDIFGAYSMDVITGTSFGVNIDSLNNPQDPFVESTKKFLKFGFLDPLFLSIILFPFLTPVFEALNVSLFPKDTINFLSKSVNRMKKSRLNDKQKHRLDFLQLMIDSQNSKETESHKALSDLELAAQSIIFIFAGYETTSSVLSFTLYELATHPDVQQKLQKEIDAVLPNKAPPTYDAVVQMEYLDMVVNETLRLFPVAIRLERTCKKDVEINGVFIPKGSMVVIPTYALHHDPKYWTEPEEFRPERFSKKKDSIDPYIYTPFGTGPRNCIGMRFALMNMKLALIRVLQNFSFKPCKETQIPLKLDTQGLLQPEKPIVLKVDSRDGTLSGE
Chain of recombinant human CYP3A4 (P08684 whole entry): as the sequence (P08684 whole entry) above
Chain of recombinant human CYP2D6 (P10635 whole entry): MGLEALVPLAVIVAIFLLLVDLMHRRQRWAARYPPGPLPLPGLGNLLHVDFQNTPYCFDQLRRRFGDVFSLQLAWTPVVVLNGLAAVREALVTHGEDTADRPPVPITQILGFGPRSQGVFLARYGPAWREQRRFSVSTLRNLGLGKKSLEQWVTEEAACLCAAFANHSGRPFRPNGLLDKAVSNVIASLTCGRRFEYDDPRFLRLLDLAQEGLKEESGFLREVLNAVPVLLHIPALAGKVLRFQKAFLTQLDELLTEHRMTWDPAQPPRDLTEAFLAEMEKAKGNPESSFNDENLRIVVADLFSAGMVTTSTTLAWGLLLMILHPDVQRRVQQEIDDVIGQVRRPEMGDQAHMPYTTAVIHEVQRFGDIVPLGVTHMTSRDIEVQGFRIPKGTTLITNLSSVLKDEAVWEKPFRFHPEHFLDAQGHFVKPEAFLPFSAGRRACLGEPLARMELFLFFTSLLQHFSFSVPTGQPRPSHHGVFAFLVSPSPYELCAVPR
Chain of recombinant human CYP2C19 (P33261 whole entry): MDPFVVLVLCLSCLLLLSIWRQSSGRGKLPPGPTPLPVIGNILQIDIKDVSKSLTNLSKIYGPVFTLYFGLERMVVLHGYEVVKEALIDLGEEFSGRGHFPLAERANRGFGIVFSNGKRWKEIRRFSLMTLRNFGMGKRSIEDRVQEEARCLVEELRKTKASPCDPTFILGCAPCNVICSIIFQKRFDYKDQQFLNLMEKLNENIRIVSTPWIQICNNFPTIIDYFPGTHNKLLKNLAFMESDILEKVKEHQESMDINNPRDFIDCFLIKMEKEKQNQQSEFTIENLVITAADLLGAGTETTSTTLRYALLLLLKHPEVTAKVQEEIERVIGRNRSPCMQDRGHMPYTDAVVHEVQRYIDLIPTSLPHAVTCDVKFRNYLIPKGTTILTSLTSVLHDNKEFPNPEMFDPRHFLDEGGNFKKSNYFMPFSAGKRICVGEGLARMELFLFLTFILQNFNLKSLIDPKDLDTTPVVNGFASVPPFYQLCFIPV

C[C@@H](c1ccc2nccn2c1)n1nnc2ncc(-c3cnn(C)c3)nc21 [Savolitinib]
turnover (metabolite formation or disappearance of parent) (CYP1A2-Cytb5R): no detectable turnover
free in normal plasma [1]: 29%
hepatocyte CLint at 1 µM (in vitro; both): 1 µL/min/1e6 cells
CLint scaled at 1 µM (in vitro; HH_scaled_CLint,u): 2.98 mL/min/kg
microsomal CLint at 1 µM ([2]; human liver microsomes + NADH): 1.6 µL/min/mg
CLint scaled at 1 µM ([2]; human liver microsomes): 1.62 mL/min/kg
microsomal CLint at 1 µM ([3]; human liver microsomes + NADPH, pH 7.4): 9.8 µL/min/mg
CLint scaled at 1 µM ([3]; human liver microsomes, pH 7.4, NADPH_HLM_scaled_CLint,u, Fig. 4a,d): 9.9 mL/min/kg
% contribution (recombinant human CYP1A2; CYP1A2, inter-system extrapolation factors): 1.6%
CLint (recombinant human CYP1A2; CYP1A2, only two experiments measurable): 0.0386 µL/min/pmol CYP
CLint (recombinant human CYP3A4; CYP3A4, average of three): 0.489 ± 0.0278 µL/min/pmol CYP
% contribution (recombinant human CYP3A4; CYP3A4, inter-system extrapolation factors): 83%
% contribution (recombinant human CYP2A6; CYP2A6, inter-system extrapolation factors): 0.2%
CLint (recombinant human CYP2A6; CYP2A6, only one experiment measurable): 0.0148 µL/min/pmol CYP
% contribution [4]: 1.9%
% contribution (recombinant human CYP3A5; CYP3A5, inter-system extrapolation factors): 12%
CLint (recombinant human CYP3A5; CYP3A5, only two experiments measurable): 0.0939 µL/min/pmol CYP
CLint (recombinant human CYP2D6; CYP2D6, average of three): 0.309 ± 0.0010 µL/min/pmol CYP
% contribution (recombinant human CYP2D6; CYP2D6, inter-system extrapolation factors): 1.8%
Papp at 2 h, 10 µM [5]: 53.7 ×10⁻⁶ cm/s
fu_HLM ([6]; fraction unbound, measured or estimated by in silico models of Fuinc): 0.935
fraction unbound at 4 h, 1 µM ([6]; human, human liver microsomes, pH 7.4): 0.935
free savolitinib [7]: 17%
fu_ratHH (rat hepatocytes): 0.847
fraction unbound at 4 h, 1 µM [8]: 0.847
Percentage savolitinib remaining (recombinant CYP3A4-POR): 1.366% and 5.612% and 4.281%
logD [9]: 1.81
oxidation by aldehyde oxidase, share of the dose [10]: 19 % of the dose
oxidation/hydrolysis on the imidazopyridine moiety, share of the dose [10]: 16 % of the dose

Source: publication PMC12592420, “A mismatch in enzyme-redox partnerships underlies divergent cytochrome P450 activities between human hepatocytes and microsomes” (Communications Biology, 2025)
